# Legend:
# CFP-DH4 (A1cOX) [1] = assay: HbA1c detection reaction completed with excess A1cOX (Example 4); format: biochemical; conditions: 0.04% (w/v) compound, 5.3 mg/ml CFP-DH4 (excess), blood cells 10.4% HbA1c, pH 6.5, 37° C.
# Description: In this Example, the amount of change in absorbance when an excess amount of A1cOX is used and HbA1c detection reaction was completed is determined.
# A reagent for HbA1c measurement having the following composition was prepared, and the measurement of HbA1c was carried out using Bio Majesty JCA-BMI650 (manufactured by JEOL Ltd.).
# (§1) Blood cells (10.4% HbA1c (NGSP value))
# (§2) 30 mM MOPS-NaOH buffer solution, pH 6.5
# 0.2% (w/v) n-dodecyl-β-D-maltoside (manufactured by Dojindo Laboratories)
# (§3) 10 U/ml peroxidase PEO-301 (Toyobo Co., Ltd.)
# (§4) 0.023 mM 10-(carboxymethylaminocarbonyl)-3,7-bis(dimethylamino)phenothiazine sodium (DA-67, manufactured by Wako Pure Chemical Industries, Ltd.)
# 0.04% (w/v) of the compound of Comparative Example 2 (Wako Pure Chemical Industries, Ltd.), any one compound of the present invention (all from Tokyo Chemical Industry Co., Ltd. except for Acid Yellow 34 from MP Biomedicals, LLC), or compound-free (Comparative Example 1) ion-exchange water as shown in Table 1 (Second Reagent-A) 10 mM MOPS-NaOH buffer solution, pH 6.5 5.3 mg/ml CFP-DH4 (A cOX)
# 8 μl of the sample diluted 51-fold with ion-exchange water was added to 96 μl of the first reagent-A, and the mixture was incubated at 37° C. for 5 minutes. Then, 24 μl of the second reagent-A was added thereto, and the quantitative reaction of hydrogen peroxide resulting from the oxidation of the β-chain amino terminus of HbA1c was allowed to progress at 37° C. for 5 minutes. The absorbance (A694 and A751) of the reaction solution for light at wavelengths of 694 nm and 751 nm was measured over time for 10 minutes after the mixing of the diluted sample with the first reagent-A to determine the value subtracting of A751 from A694, i.e., the value A694/751. Subsequently, ΔA was calculated by subtracting, from A694/751, the value of (104/128) times A694/751 4.8 minutes after mixing the diluted sample with the first reagent-A. Incidentally, 4.8 minutes after the mixing of the diluted sample with the first reagent-A represents the time immediately before the addition of the second reagent-A. ΔA 9 minutes and 10 minutes after the mixing of the diluted sample with the first reagent (ΔA9min and ΔA10min) are shown in Table 1.
# In other words, it can be recognized that the quantitative reaction of HbA1c, i.e., the quantitative reaction of hydrogen peroxide resulting from the oxidation of HbA1c, was completed in 10 minutes after the mixing of the diluted sample with the first reagent-A. Accordingly, in Examples 4 and 5, ΔA10min in each Comparative Example or the present invention was defined as ΔA when 100% of the quantitative reaction of HbA1c progressed under each condition (ΔA100%).
# CFP-DH4 (A1cOX) [2] = assay: Acceleration of HbA1c detection reaction with small amount of A1cOX (Example 5); format: biochemical; conditions: HbA1c detection reaction, ΔA/ΔA100%, 0.04% (w/v) compound, 1.1 mg/ml CFP-DH4
# Description: Next, in this Example, the degree of acceleration of HbA1c detection reaction by the compound of the present invention was determined using a small amount of A1cOX.
# A reagent for HbA1c measurement having the following composition was prepared, and the measurement of HbA1c was carried out using Bio Majesty JCA-BM1650 (manufactured by JEOL Ltd.).
# as §1, §2
# 0.2% (w/v) n-dodecyl-3-D-maltoside (manufactured by Dojindo Laboratories)
# as §3, §4
# 0.04% (w/v) of the compound of Comparative Example 2, any one compound of the present invention, or compound-free (Comparative Example 1) ion-exchange water as shown in Table 2
# 10 mM MOPS-NaOH buffer solution, pH 6.5
# 1.1 mg/ml CFP-DH4 (A cOX)
# 8 μl of the sample diluted 51-fold with ion-exchange water was added to 96 μl of the first reagent, and the mixture was incubated at 37° C. for 5 minutes. Then, 24 μl of the second reagent-B was added thereto, and the quantitative reaction of hydrogen peroxide resulting from the oxidation of the β-chain amino terminus of HbA1c was allowed to progress at 37° C. for 5 minutes. The absorbance ([…] and A751) of the reaction solution for light at wavelengths of 694 nm and 751 nm was measured over time for 10 minutes after the mixing of the diluted sample with the first reagent to determine the value of subtraction of A751 from A694, i.e., the value A694/751. Subsequently, ΔA was calculated by subtracting, from A694/751, the value of (104/128) times A694/751 4.8 minutes after the mixing of the diluted sample with the first reagent. Incidentally, […] after the mixing of the diluted sample with the first reagent represents the time immediately before the addition of the second reagent-B.
# Next, ΔA calculated in this Example was divided by ΔA100% defined in Example 4 to calculate the degree of progression of HbA1c detection reaction. The degree of progression of HbA1c detection reaction 7.5 and 10 minutes after the mixing of the diluted sample with the first reagent (in other words, 2.5 and 5 minutes after the addition of the second reagent-B) is shown in Table 2.
smiles,measurement,setting,value
"O=C([O-])C1=NN(c2ccc(S(=O)(=O)[O-])cc2)C(=O)C1N=Nc1ccc(S(=O)(=O)[O-])cc1.[Na+].[Na+].[Na+] (stereo not shown) [Tartrazine, reference compound]",ΔA9 min,CFP-DH4 (A1cOX) [1]; change in A694-A751 9 minutes after mixing sample with first reagent,0.032
same,ΔA10 min,"CFP-DH4 (A1cOX) [1]; change in A694-A751 10 minutes after mixing sample with first reagent, defined as ΔA100%",0.032
same,Degree of progression of reaction (%) after 7.5 minutes,"CFP-DH4 (A1cOX) [2]; 2.5 minutes after addition of second reagent, not added: 51",38%
same,Degree of progression of reaction (%) after 10 minutes,"CFP-DH4 (A1cOX) [2]; 5 minutes after addition of second reagent, not added: 73",62%

# Source: patent US11384381B2, “Reaction accelerating agent” (Kikkoman Corporation, priority 2016, dated 2022)
